Earlier results, collected in EP2583674A2, “ACECLOFENAC SLOW-RELEASE PREPARATION PROVIDING AN OPTIMUM PHARMACOLOGICAL CLINICAL EFFECT WHEN ADMINISTERED ONCE A DAY” (Korea United Pharm, Inc., priority 2010, dated 2011).

[1] = aceclofenac and the metabolites thereof

O=C(O)COC(=O)Cc1ccccc1Nc1c(Cl)cccc1Cl [aceclofenac, 2-[(2,6-dichlorophenyl)amino]-phenylacetoxyacetic acid]
excreted through stool [1]: approximately 20%
excreted through urine [1]: approximately 70%
excretion rate (half-life) (in vivo): approximately 4 hours
duration (orally administered): approximately 12 hours
onset time (orally administered): ≤ 30 min
